Patent US20150051203A1, “TRIAZOLE DERIVATIVES AS HSP90 INHIBITORS” (Synta Pharmaceuticals Corp., priority 2012, published 2015)
Like-named read-outs stand apart in the source and are kept apart here. Blank lines part the entries; values can stand above or below the compound they belong to.

Key:
c-Kit = c-Kit degradation in HEL92.1.7 cells (FACS-based degradation assay); type: cell-based; conditions: treated about 18 h
Experimental: Two leukemia cell lines, HEL92.1.7 and Kasumi-1, were used for testing c-Kit degradation induced by Hsp90 inhibitors of the invention. The cells (3×10^5 per well) were treated with 17AAG (0.5 μM), or a compound of the invention for about 18 h. The cells were collected and centrifuged (SORVALL RT 6000D) at 1200 rpm for 5 min. The supernatants were discarded, and the cells were washed one time with 1×PBS. After centrifugation the cells were stained with FITC conjugated c-Kit antibody (MBL International, Cat# K0105-4) in […] 1×PBS at 4° C. for 1 h. The samples were read and analyzed with FACSCalibur flow cytometer (Becton Dicknson).
c-Kit, a tyrosine kinase receptor and one of the Hsp90 client proteins, was selected and used in a FACS-based degradation assay.

[1] = Exploratory small molecule PK study in rats; type: in vivo, male Sprague-Dawley rats; parameters: AUClast: unit not given here; conditions: rat; for half-life: male, Sprague-Dawley, plasma, read-out: T½ (converted); for F: PO 25 mg/Kg D5W vs IV 5 mg/Kg DPD
Experimental: PK studies were conducted in male Sprague-Dawley rats. One group was dosed by IV (n=2) and another group was dosed orally (n=3). Blood samples were collected in lithium heparin coated microfuge tubes at 5 (IV only), 15, 30 min, 1, 3, 4, 6, 8, 24 h post dose. Samples were then centrifuged under refrigerated conditions and plasma was collected for analysis.
A solvent-based protein precipitation procedure was used to measure the concentration of each compound in plasma and/or whole blood. Samples were analyzed with an Agilent 1100 HPLC (Santa Clara, Calif.) interfaced to an API 4000 tandem mass spectrometer (Applied Biosystems, Foster City, Calif.) using a Synergy, Hydro-RP column (4 μm, 2×50 mm; Phenomenex, Torrance, Calif.) at a flow rate of 0.5 ml/min. Mobile phase consisted of 10 mM ammonium acetate in water (A) and 10 mM ammonium acetate in 95/5 (v/v) methanol/water (B). Total run time was 5 min with the gradient elution. […] All standard curves were fit to a quadratic equation with a weighing factor of 1/(concentration)^2 to calculate compound concentrations.

IC50 (c-Kit): 200 nM
SMILES: CCc1n[nH]c2cc(O)c(-c3nnc(O)n3-c3ccc4c(ccn4C)c3)cc12 [Compound 29, 3-ethyl-5-(5-hydroxy-4-(1-methyl-1H-indol-5-yl)-4H-1,2,4-triazol-3-yl)-1H-indazol-6-ol]

half-life ([1]; IV 5 mg/Kg, DPD): 1.7 h
half-life ([1]; PO 25 mg/Kg, D5W): 4.3 h
AUClast ([1]; IV 5 mg/Kg, DPD): 2.52
F [1]: 197%
AUClast ([1]; PO 25 mg/Kg, D5W): 24.4
SMILES: CCNC(=O)c1nnc(-c2cc3c(C(C)C)n[nH]c3cc2O)n1-c1ccc(CN2CCOCC2)cc1 [Compound 55, N-ethyl-5-(6-hydroxy-3-isopropyl-1H-indazol-5-yl)-4-(4-(morpholinomethyl)phenyl)-4H-1,2,4-triazole-3-carboxamide]

IC50 (c-Kit): 36 nM
SMILES: CCCc1n[nH]c2cc(O)c(-c3nnc(C(=O)NC4CC4)n3-c3ccc(N4CCOCC4)cc3)cc12 [Compound 8, N-cyclopropyl-5-(6-hydroxy-3-propyl-1H-indazol-5-yl)-4-(4-morpholinophenyl)-4H-1,2,4-triazole-3-carboxamide]

half-life ([1]; IV 5 mg/Kg, DPD): 1.1 h
half-life ([1]; PO 25 mg/Kg, D5W): 2.1 h
AUClast ([1]; IV 5 mg/Kg, DPD): 1.69
F [1]: 7.57%
AUClast ([1]; PO 25 mg/Kg, D5W): 0.61
SMILES: CC(C)c1n[nH]c2cc(O)c(-c3nnc(O)n3-c3ccc(N4CCN(C)CC4)cc3)cc12 [Compound 72, 5-(5-hydroxy-4-(4-(4-methylpiperazin-1-yl)phenyl)-4H-1,2,4-triazol-3-yl)-3-isopropyl-1H-indazol-6-ol]

IC50 (c-Kit): 5000 nM
SMILES: Cc1n[nH]c2cc(O)c(-c3nnc(C(N)=O)n3-c3ccc4c(c3)OCO4)cc12 [Compound 4, 4-(benzo[d][1,3]dioxol-5-yl)-5-(6-hydroxy-3-methyl-1H-indazol-5-yl)-4H-1,2,4-triazole-3-carboxamide]

IC50 (c-Kit): 20 nM
SMILES: CCc1n[nH]c2cc(O)c(-c3nnc(C(N)=O)n3-c3ccc(N4CCOCC4)cc3)cc12 [Compound 6, 5-(3-ethyl-6-hydroxy-1H-indazol-5-yl)-4-(4-morpholinophenyl)-4H-1,2,4-triazole-3-carboxamide]

IC50 (c-Kit): 400 nM
SMILES: CCc1n[nH]c2cc(O)c(-c3nnc(O)n3-c3ccc(N4CCOCC4)cc3)cc12 [Compound 32, 3-ethyl-5-(5-hydroxy-4-(4-morpholinophenyl)-4H-1,2,4-triazol-3-yl)-1H-indazol-6-ol]

IC50 (c-Kit): > 20000 nM
SMILES: CCc1n[nH]c2cc(O)c(-c3nnc(O)n3-c3cccc(N(C)C)c3)cc12 [Compound 31, 5-(4-(3-(dimethylamino)phenyl)-5-hydroxy-4H-1,2,4-triazol-3-yl)-3-ethyl-1H-indazol-6-ol]

IC50 (c-Kit): 100 nM
SMILES: Cc1n[nH]c2cc(O)c(-c3nnc(C(=O)NC4CC4)n3-c3ccc(N4CCOCC4)cc3)cc12 [Compound 5, N-cyclopropyl-5-(6-hydroxy-3-methyl-1H-indazol-5-yl)-4-(4-morpholinophenyl)-4H-1,2,4-triazole-3-carboxamide]

IC50 (c-Kit): 40 nM
SMILES: CC(C)c1n[nH]c2cc(O)c(-c3nnc(C(N)=O)n3-c3ccc(N4CCOCC4)cc3)cc12 [Compound 9, 5-(6-hydroxy-3-isopropyl-1H-indazol-5-yl)-4-(4-morpholinophenyl)-4H-1,2,4-triazole-3-carboxamide]

IC50 (c-Kit): 4000 nM
SMILES: CCc1n[nH]c2cc(O)c(-c3nnc(O)n3-c3ccc(N4CCOCC4)nc3)cc12 [Compound 33, 3-ethyl-5-(5-hydroxy-4-(6-morpholinopyridin-3-yl)-4H-1,2,4-triazol-3-yl)-1H-indazol-6-ol]

IC50 (c-Kit): 500 nM
SMILES: Cc1n[nH]c2cc(O)c(-c3nnc(C(N)=O)n3-c3ccc(N4CCOCC4)cc3)cc12 [Compound 2, 5-(6-hydroxy-3-methyl-1H-indazol-5-yl)-4-(4-morpholinophenyl)-4H-1,2,4-triazole-3-carboxamide]

half-life ([1]; IV 5 mg/Kg, DPD): 1.5 h
half-life ([1]; PO 25 mg/Kg, D5W): 4.2 h
AUClast ([1]; IV 5 mg/Kg, DPD): 3.96
F [1]: 13%
AUClast ([1]; PO 25 mg/Kg, D5W): 2.55
SMILES: Oc1cc2[nH]nc(C3CCCC3)c2cc1-c1nnc(O)n1-c1ccc(CN2CCOCC2)cc1 [Compound 78, 3-cyclopentyl-5-(5-hydroxy-4-(4-(morpholinomethyl)phenyl)-4H-1,2,4-triazol-3-yl)-1H-indazol-6-ol]
